Literature values as cited in US8221746B2, “Antioxidant for use in cosmetic, medicated and pharmaceutical preparations” (priority 2008, dated 2012).

Experiments:
[1] = test system: photodamage of facial skin; details: topical, 3 months
photoaging of the face = details: topical, 12 weeks, vs placebo gel

## O=C1O[C@H]([C@@H](O)CO)C(O)=C1O [vitamin C]
[1]
  patient questionnaire overall improvement greater than control: 84.2%
  photographic assessment improvement greater than the improvement in the control group: 57.9%
[1]; compared to placebo-vehicle side of face
  combined score improvement, optical image analysis of skin surface: 71%
Photoaging of the face
  clinical improvement in wrinkling (in words): clinically visible and statistically significant improvement in wrinkling
